Experimental data from patent US12077503B2, “Substituted cyclic amides and their use as herbicides” (FMC CORPORATION, priority 2015, dated 2024).

Key:
Format in all cases: in vivo
corn (Zea mays) = assay: Test A postemergence; conditions: Zea mays, post-emergence, 240 h, postemergence, approx. 10 d; for plant injury at 125 g/ha: 125 g ai/ha, visual injury on 0 to 100 scale (0 no effect, 100 complete control), read-out: Corn plant response rating; for Corn plant response rating (crop injury, 0 = no effect, 100 = complete kill) at 500 g/ha: 500 g ai/ha, visual injury, 0 to 100 scale (0 no effect, 100 complete control)
Method in brief: (§1)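 Visual injury, scored on a 0–100 scale relative to untreated controls, was recorded about 10 d after application. Treatments were a preemergence soil spray over planted seeds or a postemergence spray on plants at the one- to two-leaf stage, 2 to 10 cm tall, all in loam soil–sand blend in the greenhouse.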

[1] = system: ragweed (common ragweed, Ambrosia elatior); assay: Test A postemergence; conditions: Ambrosia artemisiifolia, post-emergence, 240 h, 125 g ai/ha, postemergence; visual injury on 0 to 100 scale (0 no effect, 100 complete control), approx. 10 d; read-out: Ragweed plant response rating
Method in brief: as §1

[2] = system: ryegrass, Italian (Italian ryegrass, Lolium multiflorum); assay: Test A postemergence; conditions: Lolium multiflorum, post-emergence, 240 h, 125 g ai/ha, postemergence; visual injury on 0 to 100 scale (0 no effect, 100 complete control), approx. 10 d; read-out: Ryegrass, Italian plant response rating
Method in brief: as §1

Kochia (Kochia scoparia) [3] = assay: Test A postemergence; conditions: Bassia scoparia, post-emergence, 240 h, postemergence, approx. 10 d; for pest or weed control at 125 g/ha: 125 g ai/ha, visual injury on 0 to 100 scale (0 no effect, 100 complete control), read-out: Kochia plant response rating; for pest or weed control at 500 g/ha: 500 g ai/ha, visual injury, 0 to 100 scale (0 no effect, 100 complete control), read-out: Plant response rating, Kochia
Method in brief: as §1

[4] = system: blackgrass (Alopecurus myosuroides); assay: Test A postemergence; conditions: Alopecurus myosuroides, post-emergence, 240 h, postemergence, approx. 10 d; for pest or weed control at 125 g/ha: 125 g ai/ha, visual injury on 0 to 100 scale (0 no effect, 100 complete control), read-out: Blackgrass plant response rating; for pest or weed control at 500 g/ha: 500 g ai/ha, visual injury, 0 to 100 scale (0 no effect, 100 complete control), read-out: Plant response rating, Blackgrass
Method in brief: as §1

[5] = system: pigweed (Amaranthus retroflexus); assay: Test A postemergence; conditions: Amaranthus retroflexus, post-emergence, 240 h, 125 g ai/ha, postemergence; visual injury on 0 to 100 scale (0 no effect, 100 complete control), approx. 10 d; read-out: Pigweed plant response rating
Method in brief: as §1

[6] = system: Galium (catchweed bedstraw, Galium aparine); assay: Test A postemergence; conditions: Galium, post-emergence, 240 h, postemergence, approx. 10 d; for pest or weed control at 125 g/ha: 125 g ai/ha, visual injury on 0 to 100 scale (0 no effect, 100 complete control), read-out: Galium plant response rating; for pest or weed control at 500 g/ha: 500 g ai/ha, visual injury, 0 to 100 scale (0 no effect, 100 complete control), read-out: Plant response rating, Galium
Method in brief: as §1

[7] = system: barnyardgrass (Echinochloa crus-galli); assay: Test A postemergence; conditions: Echinochloa crus-galli, post-emergence, 240 h, postemergence, approx. 10 d; for pest or weed control at 125 g/ha: 125 g ai/ha, visual injury on 0 to 100 scale (0 no effect, 100 complete control), read-out: Barnyardgrass plant response rating; for pest or weed control at 500 g/ha: 500 g ai/ha, visual injury, 0 to 100 scale (0 no effect, 100 complete control), read-out: Plant response rating, Barnyardgrass
Method in brief: as §1

[8] = system: wheat (Triticum aestivum); assay: Test A postemergence; conditions: Triticum aestivum, post-emergence, 240 h, 125 g ai/ha, postemergence; visual injury on 0 to 100 scale (0 no effect, 100 complete control), approx. 10 d; read-out: Wheat plant response rating
Method in brief: as §1

[9] = system: ragweed (common ragweed, Ambrosia elatior); assay: Test A preemergence; conditions: Ambrosia artemisiifolia, pre-emergence, 240 h; for pest or weed control at 125 g/ha: 125 g ai/ha, Preemergence, visual injury rating after approximately 10 d, read-out: Ragweed plant response rating (0 to 100 scale, 0 is no effect, 100 is complete control); for pest or weed control at 500 g/ha: 500 g ai/ha, preemergence, visual injury rating about 10 d after treatment, 0 to 100 scale (0 no effect, 100 complete control), read-out: Ragweed plant response rating
Method in brief: as §1

[10] = system: ryegrass, Italian (Italian ryegrass, Lolium multiflorum); assay: Test A preemergence; conditions: Lolium multiflorum, pre-emergence, 240 h; for pest or weed control at 125 g/ha: 125 g ai/ha, Preemergence, visual injury rating after approximately 10 d, read-out: Ryegrass, Italian plant response rating (0 to 100 scale, 0 is no effect, 100 is complete control); for pest or weed control at 500 g/ha: 500 g ai/ha, preemergence, visual injury rating about 10 d after treatment, 0 to 100 scale (0 no effect, 100 complete control), read-out: Ryegrass, Italian plant response rating
Method in brief: as §1

[11] = system: giant foxtail (Setaria faberii); assay: Test A preemergence; conditions: Setaria faberi, pre-emergence, 240 h; for pest or weed control at 125 g/ha: 125 g ai/ha, Preemergence, visual injury rating after approximately 10 d, read-out: Foxtail, Giant plant response rating (0 to 100 scale, 0 is no effect, 100 is complete control); for pest or weed control at 500 g/ha: 500 g ai/ha, preemergence, visual injury rating about 10 d after treatment, 0 to 100 scale (0 no effect, 100 complete control), read-out: Foxtail, Giant plant response rating
Method in brief: as §1

Kochia (Kochia scoparia) [12] = assay: Test A preemergence; conditions: Bassia scoparia, pre-emergence, 240 h; for pest or weed control at 125 g/ha: 125 g ai/ha, Preemergence, visual injury rating after approximately 10 d, read-out: Kochia plant response rating (0 to 100 scale, 0 is no effect, 100 is complete control); for pest or weed control at 500 g/ha: 500 g ai/ha, preemergence, visual injury rating about 10 d after treatment, 0 to 100 scale (0 no effect, 100 complete control), read-out: Kochia plant response rating
Method in brief: as §1

[13] = system: pigweed (Amaranthus retroflexus); assay: Test A preemergence; conditions: Amaranthus retroflexus, pre-emergence, 240 h; for pest or weed control at 125 g/ha: 125 g ai/ha, Preemergence, visual injury rating after approximately 10 d, read-out: Pigweed plant response rating (0 to 100 scale, 0 is no effect, 100 is complete control); for pest or weed control at 500 g/ha: 500 g ai/ha, preemergence, visual injury rating about 10 d after treatment, 0 to 100 scale (0 no effect, 100 complete control), read-out: Pigweed plant response rating
[14] = system: barnyardgrass (Echinochloa crus-galli); assay: Test A preemergence; conditions: Echinochloa crus-galli, pre-emergence, 240 h; for pest or weed control at 125 g/ha: 125 g ai/ha, Preemergence, visual injury rating after approximately 10 d, read-out: Barnyardgrass plant response rating (0 to 100 scale, 0 is no effect, 100 is complete control); for pest or weed control at 500 g/ha: 500 g ai/ha, preemergence, visual injury rating about 10 d after treatment, 0 to 100 scale (0 no effect, 100 complete control), read-out: Barnyardgrass plant response rating
Method in brief: as §1

| Compound | plant injury at 125 g/ha (corn (Zea mays)) [%] | Corn plant response rating (crop injury, 0 = no effect, 100 = complete kill) at 500 g/ha (corn (Zea mays)) [%] | pest or weed control at 125 g/ha [1] [%] | pest or weed control at 125 g/ha [2] [%] | pest or weed control at 125 g/ha (Kochia (Kochia scoparia) [3]) [%] | pest or weed control at 500 g/ha (Kochia (Kochia scoparia) [3]) [%] | pest or weed control at 125 g/ha [4] [%] | pest or weed control at 500 g/ha [4] [%] | pest or weed control at 125 g/ha [5] [%] | pest or weed control at 125 g/ha [6] [%] | pest or weed control at 500 g/ha [6] [%] | pest or weed control at 125 g/ha [7] [%] | pest or weed control at 500 g/ha [7] [%] | plant injury at 125 g/ha [8] [%] | pest or weed control at 125 g/ha [9] [%] | pest or weed control at 500 g/ha [9] [%] | pest or weed control at 125 g/ha [10] [%] | pest or weed control at 500 g/ha [10] [%] | pest or weed control at 125 g/ha [11] [%] | pest or weed control at 500 g/ha [11] [%] | also measured |
| --- | --- | --- | --- | --- | --- | --- | --- | --- | --- | --- | --- | --- | --- | --- | --- | --- | --- | --- | --- | --- | --- |
| Cc1cc([C@H]2CNC(=O)[C@@H]2C(=O)Nc2ccccc2F)ccc1C(F)(F)F [Compound 1042] | 60 | 70 | 0 | 30 | 30 | 60 | 40 | 70 | 20 | 30 | 50 | 80 | 90 | 0 | 20 | 40 | 30 | 50 | 90 | 90 | pest or weed control at 125 g/ha (Kochia (Kochia scoparia) [12]): 20%; pest or weed control at 500 g/ha (Kochia (Kochia scoparia) [12]): 70%; pest or weed control at 125 g/ha [13]: 30%; pest or weed control at 500 g/ha [13]: 50%; pest or weed control at 125 g/ha [14]: 90%; pest or weed control at 500 g/ha [14]: 90% |
| O=C1NC[C@H](c2ccc3c(c2)CCC3)[C@H]1C(=O)Nc1ccccc1F [Compound 1045] | 20 | 40 | 30 | 50 | 0 | 0 | 40 | 60 | 0 | 40 | 50 | 90 | 90 | 20 | 0 | 30 | 30 | 70 | 80 | 90 | pest or weed control at 125 g/ha (Kochia (Kochia scoparia) [12]): 0%; pest or weed control at 500 g/ha (Kochia (Kochia scoparia) [12]): 20%; pest or weed control at 125 g/ha [13]: 0%; pest or weed control at 500 g/ha [13]: 0%; pest or weed control at 125 g/ha [14]: 90%; pest or weed control at 500 g/ha [14]: 90% |
| O=C1NC[C@H](c2ccc3c(c2)CCC3)[C@H]1C(=O)Nc1cccc(F)c1F [Compound 1046] | 20 | 60 | 0 | 40 | 0 | 0 | 30 | 50 | 0 | 50 | 50 | 90 | 90 | 20 | 40 | 70 | 60 | 60 | 80 | 90 | pest or weed control at 125 g/ha (Kochia (Kochia scoparia) [12]): 60%; pest or weed control at 500 g/ha (Kochia (Kochia scoparia) [12]): 70%; pest or weed control at 125 g/ha [13]: 0%; pest or weed control at 500 g/ha [13]: 0%; pest or weed control at 125 g/ha [14]: 90%; pest or weed control at 500 g/ha [14]: 90% |
